Experimental data from patent US8940756B2, “Dihydronaphthyridines and related compounds useful as kinase inhibitors for the treatment of proliferative diseases” (Deciphera Pharmaceuticals, Inc., priority 2012, dated 2015).

How the values were obtained:
[1] = biological target: T1, c-KIT D816H kinase (Seq ID no. 3) (Homo sapiens, UniProt P10721, D816H); assay: c-KIT D816H Kinase Assay; type: biochemical; conditions: enzymatic assay, ATP 200 μM
T1 construct: GST (N); TEV cleavage site (N); purchased deCODE Biostructures
T1 sequence (P10721 544-976 D816H): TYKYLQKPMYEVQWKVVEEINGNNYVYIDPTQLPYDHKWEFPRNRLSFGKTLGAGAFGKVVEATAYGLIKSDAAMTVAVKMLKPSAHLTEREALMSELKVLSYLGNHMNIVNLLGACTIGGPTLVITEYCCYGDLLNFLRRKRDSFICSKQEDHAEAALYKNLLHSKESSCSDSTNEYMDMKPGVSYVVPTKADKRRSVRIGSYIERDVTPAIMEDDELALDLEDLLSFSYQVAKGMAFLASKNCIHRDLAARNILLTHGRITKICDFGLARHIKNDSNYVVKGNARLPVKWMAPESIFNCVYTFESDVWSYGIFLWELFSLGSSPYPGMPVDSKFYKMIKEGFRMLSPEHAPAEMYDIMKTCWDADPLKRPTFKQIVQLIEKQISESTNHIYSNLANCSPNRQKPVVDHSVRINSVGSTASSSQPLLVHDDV

[2] = biological target: T2, Phospho-KIT (Tyr719) in GIST T1 cells (Homo sapiens, UniProt P10721, DEL560-578); assay: GIST T1 KIT Western Blot; type: cell-based; conditions: 4 hours, read-out: pKIT suppression by western blot analysi GIST T1
T2 construct: endogenous in cells; host or cells: GIST T1
T2 sequence (P10721 with tags, fused parts or gaps DEL560-578): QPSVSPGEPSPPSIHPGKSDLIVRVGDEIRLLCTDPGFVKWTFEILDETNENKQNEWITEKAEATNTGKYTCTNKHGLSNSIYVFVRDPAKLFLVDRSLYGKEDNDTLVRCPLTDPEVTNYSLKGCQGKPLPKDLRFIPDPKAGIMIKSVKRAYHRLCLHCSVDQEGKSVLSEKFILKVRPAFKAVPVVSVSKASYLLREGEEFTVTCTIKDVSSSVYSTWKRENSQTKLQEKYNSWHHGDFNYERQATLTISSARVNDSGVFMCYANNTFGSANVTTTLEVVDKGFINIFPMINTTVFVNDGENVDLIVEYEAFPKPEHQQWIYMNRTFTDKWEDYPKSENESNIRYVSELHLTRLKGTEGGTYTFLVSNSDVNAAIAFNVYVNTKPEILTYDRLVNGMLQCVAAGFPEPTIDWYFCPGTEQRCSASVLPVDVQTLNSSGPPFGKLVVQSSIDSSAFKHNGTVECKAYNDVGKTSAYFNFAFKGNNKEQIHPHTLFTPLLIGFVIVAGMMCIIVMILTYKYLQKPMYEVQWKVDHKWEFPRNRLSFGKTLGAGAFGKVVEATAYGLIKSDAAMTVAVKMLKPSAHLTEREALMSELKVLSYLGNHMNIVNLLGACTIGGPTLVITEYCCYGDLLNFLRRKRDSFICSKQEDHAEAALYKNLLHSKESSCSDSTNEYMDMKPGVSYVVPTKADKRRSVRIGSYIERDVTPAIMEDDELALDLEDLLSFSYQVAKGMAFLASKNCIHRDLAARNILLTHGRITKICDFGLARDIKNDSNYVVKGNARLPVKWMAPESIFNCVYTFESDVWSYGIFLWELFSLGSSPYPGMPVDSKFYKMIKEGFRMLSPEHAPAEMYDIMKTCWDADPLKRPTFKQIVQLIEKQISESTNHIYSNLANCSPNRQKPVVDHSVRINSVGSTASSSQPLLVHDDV
Procedure: GIST48, GIST430, and GIST882 cells were obtained from J. Fletcher (Brigham and Women's Hospital, Boston, Mass.). GIST T1 cells were obtained from B. Rubin (Cleveland Clinic, Cleveland, Ohio) and Professor Takahiro Taguchi (Kochi Medical School, Nankoku, Kochi, Japan). […] GIST430 cells were grown in Ham's F10 medium supplemented with 15% characterized fetal bovine serum (Invitrogen, Carlsbad, Calif.), 30 mg/L bovine pituitary extract (BD Biosciences, San Jose, Calif.), 0.5% Mito+ serum extender (BD Biosciences, San Jose, Calif.), 1 unit/mL penicillin G, 1 μg/ml streptomycin, and 0.29 mg/mL L-glutamine at 37° C., 5% CO2, 95% humidity. GIST T1 cells were grown in DMEM medium supplemented with 10% characterized fetal bovine serum (Invitrogen, Carlsbad, Calif.), 1 unit/mL penicillin G, 1 ng/ml streptomycin, and 0.29 mg/mL L-glutamine at 37° C., 5% CO2, and 95% humidity. […]
One hundred twenty-five thousand cells were added per well in a 24-well tissue-culture treated plate. […] Phospho-KIT (Tyr719) was detected using an antibody from Cell Signaling Technology (Beverly, Mass.), ECL Plus detection reagent (GE Healthcare, Piscataway, N.J.) and a Molecular Devices Storm 840 phosphorimager in fluorescence mode. […] IC50 values were calculated using Prism software (Graphpad, San Diego, Calif.).

[3] = biological target: T3, c-KIT V654A kinase (Seq ID no. 2) (Homo sapiens, UniProt P10721, V654A); assay: c-KIT V654A Kinase Assay; type: biochemical; conditions: enzymatic assay, ATP 200 μM
T3 construct: V654A c-Kit (residues T544-V976 with N-terminal GST fusion, 47 nM); purchased deCODE Biostructures
T3 sequence (P10721 544-976 V654A): as the sequence (P10721 544-976 D816H) above, with V111A, H273D counted along it
Procedure: In this assay, the oxidation of NADH (measured by decrease in absorbance at 340 nm) was continuously monitored spectrophotometrically. […] The inhibition reaction was started by mixing serial diluted test compound with the above reaction mixture. The absorption at 340 nm was monitored continuously for 6 hours at 30° C. on Synergy 2 plate reader (BioTech).
The protein construct was prepared by deCODE Biostructures using procedures known in the art. The construct contains residues T544-V976 of cKit, an N-terminal tag, a GST-fusion sequence and a TEV cleavage site. This construct is identical to Seq ID no.

[4] = biological target: T4, c-KIT VVDV kinase (V559 and V560 deleted and D816V mutation, Seq ID no. 5) (Homo sapiens, UniProt P10721, D816V/DEL559-560); assay: cKIT-VVDV Kinase Assay; type: biochemical; conditions: enzymatic assay, ATP 200 uM
T4 construct: This construct contains residues T544-V976 of cKit (except for the D816V mutation and the deletion of residues V559 and V560); GST (N); TEV cleavage site (N); purchased deCODE Biostructures
T4 sequence (P10721 with tags, fused parts or gaps DEL559-560/D816V): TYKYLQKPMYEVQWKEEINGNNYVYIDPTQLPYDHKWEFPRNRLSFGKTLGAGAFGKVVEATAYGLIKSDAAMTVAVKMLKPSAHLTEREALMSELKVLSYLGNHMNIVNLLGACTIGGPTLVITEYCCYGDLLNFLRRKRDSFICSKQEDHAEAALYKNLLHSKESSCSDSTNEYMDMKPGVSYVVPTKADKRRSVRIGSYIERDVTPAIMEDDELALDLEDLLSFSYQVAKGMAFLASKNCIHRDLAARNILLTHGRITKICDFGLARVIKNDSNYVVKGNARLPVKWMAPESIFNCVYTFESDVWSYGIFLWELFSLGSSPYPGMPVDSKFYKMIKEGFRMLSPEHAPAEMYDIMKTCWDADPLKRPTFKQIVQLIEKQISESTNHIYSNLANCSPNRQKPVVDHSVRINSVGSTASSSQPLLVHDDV
Procedure: In this assay, the oxidation of NADH (measured by decrease in absorbance at 340 nm) was continuously monitored spectrophotometrically. […] The inhibition reaction was started by mixing serial diluted test compound with the above reaction mixture. The absorption at 340 nm was monitored continuously for 5 hours at 30° C. on Synergy 2 plate reader (BioTech). […] The protein construct was prepared by deCODE Biostructures using procedures known in the art. This construct contains […] of cKit (except for the D816V […]), an N-terminal tag, a GST-fusion sequence and a TEV cleavage site. This construct is identical to Seq ID no. 1 except for the D816V […].

Compound | IC50 [1] | IC50 [2] | IC50 [3] | IC50 [4]
CCn1c(=O)c(-c2cc(NC(=O)Nc3cc(F)cc(CN4CCN(C)CC4)c3)c(F)cc2Cl)cc2cnc(NC)cc21 [Example 88, 1-(4-chloro-5-(1-ethyl-7-(methylamino)-2-oxo-1,2-dihydro-1,6-naphthyridin-3-yl)-2-fluorophenyl)-3-(3-fluoro-5-((4-methylpiperazin-1-yl)methyl)phenyl)urea] | 10 to 100 nM | < 10 nM | 10 to 100 nM | 
CCn1c(=O)c(-c2cc(NC(=O)Nc3ccccc3)c(F)cc2Cl)cc2cnc(N)cc21 [Example 21, 1-(5-(7-amino-1-ethyl-2-oxo-1,2-dihydro-1,6-naphthyridin-3-yl)-4-chloro-2-fluorophenyl)-3-phenylurea] | < 10 nM | < 10 nM | < 10 nM | < 10 nM
CCn1c(=O)c(-c2cc(NC(=O)Nc3cccc(CN4CCN(C)CC4)c3)c(F)cc2Cl)cc2cnc(NC)cc21 [Example 79, 1-(4-chloro-5-(1-ethyl-7-(methylamino)-2-oxo-1,2-dihydro-1,6-naphthyridin-3-yl)-2-fluorophenyl)-3-(3-((4-methylpiperazin-1-yl)methyl)phenyl)urea] | 10 to 100 nM |  | 100 to 1000 nM | > 1000 nM
